Measurements: ChEMBL document CHEMBL1201862, “PubChem BioAssay data set” (2004)
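48-hour exposure; five concentrations; linearly interpolated endpoints. GI50: concentration for 50% inhibition of growth.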 Activity calls are given as the source filed them. Cut-off read from the data, not from the text of the source: active = GI50 up to about 1.1 µM and inactive = higher.

How the values were obtained:
Experiment in all cases: inhibition of tumour cell growth, NCI panel, 48 h
786-0 = test system: 786-0
M19-MEL = test system: M19-MEL
HOP-18 = test system: HOP-18
KM-20L2 = test system: KM-20L2
DMS-273 = test system: DMS-273
RXF 631 = test system: RXF 631
DMS-114 = test system: DMS-114
DLD-1 = test system: DLD-1
XF498 = test system: XF498

Compound	GI50 (786-0)	GI50 (M19-MEL)	GI50 (HOP-18)	GI50 (KM-20L2)	GI50 (DMS-273)	GI50 (RXF 631)	GI50 (DMS-114)	GI50 (DLD-1)	GI50 (XF498)
O=[N+]([O-])c1ccc(S(=O)(=O)N=Ic2ccccc2)cc1	> 100 µM (inactive)								
NCc1ccccc1-c1c2nc(c(-c3ccccc3CN)c3ccc([nH]3)c(-c3ccccc3CN)c3nc(c(-c4ccccc4CN)c4ccc1[nH]4)C=C3)C=C2		22.2 µM (inactive)	1.18 µM (inactive)	19.7 µM (inactive)	7.36 µM (inactive)				
O=C1C(=O)N(C2CCCCC2)C(=S)N1C1CCCCC1	> 100 µM (inactive)								
Cc1cc(C)c(-n2[nH]c(=O)n(C)c2=O)c(C)c1	> 100 µM (inactive)								
CC(C)(C)N(Cc1ccoc1)C(=O)/C=C\[S+]([O-])c1ccccc1 (stereo unspecified)	19.8 µM (inactive)								
COC(=O)NN1C(=O)C(=P(c2ccccc2)(c2ccccc2)c2ccccc2)C(C(=O)OC)=C1C		> 100 µM (inactive)	> 100 µM (inactive)	> 100 µM (inactive)	> 100 µM (inactive)	> 100 µM (inactive)	> 100 µM (inactive)		
O=C(O)/C=N\N=c1[nH]c2ccccc2[nH]1	> 100 µM (inactive)								
CCCCCCCCCCCCCCCCCCN(C)CC(COP(=O)([O-])OCC[N+](C)(C)C)OC (stereo unspecified)	6.89 µM (inactive)	4.21 µM (inactive)	17.3 µM (inactive)	1.91 µM (inactive)	1.95 µM (inactive)	16.2 µM (inactive)	6.76 µM (inactive)	5.14 µM (inactive)	14 µM (inactive)
CSc1ccccc1P(c1ccccc1SC)c1ccccc1SC	> 100 µM (inactive)								
COc1c(OC)c(OC)c2c(c1OC)c(=O)c1ccccc1n2C [MELICOPICINE]	> 100 µM (inactive)								
CCOC(=O)C(=O)Nc1c(CC)cccc1C(C)CC (stereo unspecified)		> 100 µM (inactive)	> 100 µM (inactive)	> 100 µM (inactive)	> 100 µM (inactive)	> 100 µM (inactive)	> 100 µM (inactive)	> 100 µM (inactive)	> 100 µM (inactive)
COC1CCC2C(=O)CCCC2O1 (stereo unspecified)	> 100 µM (inactive)	> 100 µM (inactive)	> 100 µM (inactive)	> 100 µM (inactive)	> 100 µM (inactive)	> 100 µM (inactive)	> 100 µM (inactive)	> 100 µM (inactive)	> 100 µM (inactive)
COc1ccc(N[C@H](C[S+]([O-])c2ccc(C)cc2)C(F)(F)C(F)(F)F)cc1 (stereo partly specified)	65.8 µM (inactive)								
Nc1nnc(O)c2c1c(I)cn2C1OC(CO)C(O)C1O (stereo unspecified)			3.05 µM (inactive)	2.49 µM (inactive)	0.125 µM (active)	0.295 µM (active)	1.43 µM (inactive)	0.082 µM (active)	2.96 µM (inactive)
